Source: EP3720857B1, “2-OXO-5H-CHROMENO[4,3-B]PYRIDINES FOR USE IN THE TREATMENT OF HEPATITIS B” (Galapagos NV, priority 2017, dated 2019)

test system: hepatitis virus B (HBV) infection; experiment: HepG2 NTCP assay (HBcAg staining as marker of HBV infection); type: cell-based; conditions: HepG2-NTCP cells infected with HBV, HBV core antigen (HBcAg) as marker of infection
Source text: The principle of the hepG2-NTCP assay is to measure the effect of a test compound on the inhibition of the hepatitis virus B (HBV) infection compared to a reference compound. To be able to infect the hepatocellular carcinoma cells (HepG2) with HBV, HepG2 cells were stably transfected with the Na+-taurocholate co-transporting polypeptide (NTCP) receptor, also referred to as Sodium/bile acid cotransporter (SLC10A1), which is necessary for HBV infection. In this assay the HBV core antigen (HBcAg) is used as a marker of HBV infection. Nuclei count is used as an indication for compound toxicity.
On day one, HepG2-NTCP cells ((Ni et al., 2014)) are seeded at 5000 cells in 50 µL per well in assay medium (DMEM high glucose supplemented with 10% non-heat inactivated (non HI) fetal bovine serum (FBS), 1% P/S, 1% L-glutamine and 1% MEM NEAA) in 384 well plate and incubated at 37°C, 5% CO2 overnight.
Compounds are prepared as 10 point serial dilutions using 1/3 dilution steps in 100% DMSO starting from 10 mM highest concentration, unless otherwise requested for very potent compounds, which started from 5mM or 1mM stock. Compounds are further diluted 1/500 in assay medium.
A negative control (vehicle: 24 wells with 0.2% DMSO) and positive control (24 wells with 100nM Myrcludex B (Cas no.: 406461-66-3), 0.2% DMSO and in 10 point DR) are included in the experiments.
On the second day, 40µl medium is removed from the cells with the plate washer (Select 405 microplate washer, Biotek). 15 µL of diluted compound series is transferred to the assay plate and cells are infected with 15 µL of HBV mix (HBV virus, 4%PEG, 1%DMSO in assay medium). The infection is performed in assay medium containing final concentration of 1% DMSO. The assay plate is incubated at 37°C, 5% CO2 overnight.
The next day, 30µl compound and HBV mix are removed from the assay plate with the plate washer and 30 µL of compound series diluted 1/500 in assay medium containing final concentration of 2.5% DMSO is added to the cell assay plate. The assay plate is incubated at 37°C, 5% CO2 for 5 days.
After 5 days of incubation, supernatant is removed from the cells with the plate washer. Cells are fixed with 50 µL of 3.7% formaldehyde added with the Well mate (Matrix technologies) and incubated for 30 min at room temperature. After fixation, cells are washed four times with phosphate buffer saline (1xPBS, 137mM NaCl, 10mM na2HPO4, 2.7mM KCl, 1.8mM KH2PO4 at pH7.4). The cells are finally subjected to HBc staining.
First, the assay plate is blocked with blocking buffer (2%FBS, 3% BSA, 0.2% TritonX100 in PBS) for 1 h at room temperature (optional to block overnight at 4°C).
After 4 washes of PBST (1XPBS + 0.05% Tween) with the plate washer, the assay plate is incubated with 30 µL diluted primary antibody (1/700 Rabbit anti-HBV core antigen, Dako, B0586 or 1/350 Rabbit anti HBV core antigen, Invitrogen, PA516368) in blocking buffer and incubated for 90 min at room temperature.
After 4 washes of PBST with the plate washer, the assay plate is incubated with 50 µL of secondary antibody (Donkey-anti-rabbit Alexa 488 antibody, Lifetechnologies A21206) 1/500 diluted in blocking buffer and incubated for 60 min at room temperature and in the dark.
The assay plate is washed 4 times with PBST on the plate washer and incubated with 50µL of DAPI (Sigma D9542, stock 5mg/mL) 1/10000 diluted in PBS for 15-30 min at room temperature and in the dark. The assay plate is now ready for read out on the InCell Analyzer 2200 (GE Healthcare).
Raw data are generated following read-out performed on InCell 2200 and are imported into the galapagos LIMS for automated calculation of percentage inhibition (PIN) and toxicity by nuclei count, using the control wells mentioned above, and creation of Dose Response curves. Table V. Hepg2 NTCP assay activity of illustrative compounds of the invention

| SMILES | IC50 [nM] |
| --- | --- |
| CC(C)C1Oc2cc(OC[C@@H]3COCCO3)c(Cl)cc2-c2c1cc(C(=O)O)c(=O)n2C1CC1 (stereo partly drawn) [Compound 50, 9-chloro-1-cyclopropyl-8-[[(2S)-1,4-dioxan-2-yl]methoxy]-5-isopropyl-2-oxo-5H-chromeno[4,3-b]pyridine-3-carboxylic acid] | 0.001 to 1 |
| CC(C)C1Oc2cc(OCC3(C)COC3)c(Cl)cc2-c2c1cc(C(=O)O)c(=O)n2C1CC1 (stereo not drawn) [Compound 52, 9-chloro-1-cyclopropyl-5-isopropyl-8-[(3-methyloxetan-3-yl)methoxy]-2-oxo-5H-chromeno[4,3-b]pyridine-3-carboxylic acid] | 0.001 to 1 |
| COCCCOc1cc2c(cc1Cl)-c1c(cc(C(=O)O)c(=O)n1C1CC1)C(C1CCOCC1)O2 (stereo not drawn) [Compound 54, 9-chloro-1-cyclopropyl-8-(3-methoxypropoxy) -2-oxo-5-tetrahydropyran-4-yl-5H-chromeno[4,3-b]pyridine-3-carboxylic acid] | 0.001 to 1 |
| COc1cc2c(cc1Cl)-c1c(cc(C(=O)O)c(=O)n1C1CC1)C(C1(C)COC1)O2 (stereo not drawn) [Compound 55, 9-chloro-1-cyclopropyl-8-methoxy-5-(3-methyloxetan-3-yl)-2-oxo-5H-chromeno[4,3-b]pyridine-3-carboxylic acid] | 0.001 to 1 |
| CCOc1cc2c(cc1Cl)-c1c(cc(C(=O)O)c(=O)n1C1CC1)C(C1(C)COC1)O2 (stereo not drawn) [Compound 56, 9-chloro-1-cyclopropyl-8-ethoxy-5-(3-methyloxetan-3-yl)-2-oxo-5H-chromeno[4,3-b]pyridine-3-carboxylic acid] | 0.001 to 1 |
| [2H]C([2H])([2H])Oc1cc2c(cc1Cl)-c1c(cc(C(=O)O)c(=O)n1C1CC1)C(C1(C)COC1)O2 (stereo not drawn) [Compound 58, 9-chloro-1-cyclopropyl-5-(3-methyloxetan-3-yl)-2-oxo-8-(trideuteriomethoxy)-5H-chromeno[4,3-b]pyridine-3-carboxylic acid] | 0.001 to 1 |
| CC1(C2Oc3cc(OCC(F)(F)F)c(Cl)cc3-c3c2cc(C(=O)O)c(=O)n3C2CC2)COC1 (stereo not drawn) [Compound 68, 9-chloro-1-cyclopropyl-5-(3-methyloxetan-3-yl)-2-oxo-8-(2,2,2-trifluoroethoxy)-5H-chromeno[4,3-b]pyridine-3-carboxylic acid] | 0.001 to 1 |
| CC1(C2Oc3cc(OC[C@H]4COCCO4)c(Cl)cc3-c3c2cc(C(=O)O)c(=O)n3C2CC2)COC1 (stereo partly drawn) [Compound 69, 9-chloro-1-cyclopropyl-8-[[(2R)-1,4-dioxan-2-yl]methoxy]-5-(3-methyloxetan-3-yl)-2-oxo-5H-chromeno[4,3-b]pyridine-3-carboxylic acid] | 0.001 to 1 |
| CC1(C2Oc3cc(OC(F)F)c(Cl)cc3-c3c2cc(C(=O)O)c(=O)n3C2CC2)COC1 (stereo not drawn) [Compound 70, 9-chloro-1-cyclopropyl-8-(difluoromethoxy)-5-(3-methyloxetan-3-yl)-2-oxo-5H-chromeno[4,3-b]pyridine-3-carboxylic acid] | 1 to 20 |
| CC1(C2Oc3cc(OCC4CN(S(C)(=O)=O)C4)c(Cl)cc3-c3c2cc(C(=O)O)c(=O)n3C2CC2)COC1 (stereo not drawn) [Compound 72, 9-chloro-1-cyclopropyl-5-(3-methyloxetan-3-yl)-8-[(1-methylsulfonylazetidin-3-yl)methoxy]-2-oxo-5H-chromeno[4,3-b]pyridine-3-carboxylic acid] | 1 to 20 |

Continued, values first:

| IC50 [nM] | SMILES |
| --- | --- |
| 0.001 to 1 | CC(C)C1Oc2cc(OC[C@H]3COCCO3)c(Cl)cc2-c2c1cc(C(=O)O)c(=O)n2C1CC1 (stereo partly drawn) [Compound 51, 9-chloro-1-cyclopropyl-8-[[(2R)-1,4-dioxan-2-yl]methoxy]-5-isopropyl-2-oxo-5H-chromeno[4,3-b]pyridine-3-carboxylic acid] |
| 0.001 to 1 | COCCCOc1cc2c(cc1Cl)-c1c(cc(C(=O)O)c(=O)n1C1CC1)C(C1CCOC1)O2 (stereo not drawn) [Compound 53, 9-chloro-1-cyclopropyl-8-(3-methoxypropoxy) -2-oxo-5-tetrahydrofuran-3-yl-5H-chromeno[4,3-b]pyridine-3-carboxylic acid] |
| 1 to 20 | CC1(C2Oc3cc(OCC4CC4)c(Cl)cc3-c3c2cc(C(=O)O)c(=O)n3C2CC2)COC1 (stereo not drawn) [Compound 57, 9-chloro-1-cyclopropyl-8-(cyclopropylmethoxy)-5-(3-methyloxetan-3-yl)-2-oxo-5H-chromeno[4,3-b]pyridine-3-carboxylic acid] |
| > 100 | O=C(O)c1cc2c(n(C3CC3)c1=O)-c1cc(F)c(F)cc1OC2 [Compound 59, 1-cyclopropyl-8,9-difluoro-2-oxo-5H-chromeno[4,3-b]pyridine-3-carboxylic acid] |
| > 100 | O=C(O)c1cc2c(n(C3CC3)c1=O)-c1cc(Cl)c(F)cc1OC2 [Compound 60, 9-chloro-1-cyclopropyl-8-fluoro-2-oxo-5H-chromeno[4,3-b]pyridine-3-carboxylic acid] |
| 1 to 20 | O=C(O)c1cc2c(n(C3CC3)c1=O)-c1cc(Cl)c(Cl)cc1OC2 [Compound 61, 8,9-dichloro-1-cyclopropyl-2-oxo-5H-chromeno[4,3-b]pyridine-3-carboxylic acid] |
| 0.001 to 1 | COCCCOc1cc2c(cc1C(F)(F)F)-c1c(cc(C(=O)O)c(=O)n1C1CC1)C(C(C)C)O2 (stereo not drawn) [Compound 62, 1-cyclopropyl-5-isopropyl-8-(3-methoxypropoxy) -2-oxo-9-(trifluoromethyl)-5H-chromeno[4,3-b]pyridine-3-carboxylic acid] |
| 1 to 20 | COCCCOc1cc2c(cc1S(C)(=O)=O)-c1c(cc(C(=O)O)c(=O)n1C1CC1)C(C(C)C)O2 (stereo not drawn) [Compound 63, 1-cyclopropyl-5-isopropyl-8-(3-methoxypropoxy) -9-methylsulfonyl-2-oxo-5H-chromeno[4,3-b]pyridine-3-carboxylic acid] |
| 1 to 20 | CC(C)C1Oc2cc(OCC3COC3)c(F)cc2-c2c1cc(C(=O)O)c(=O)n2C1CC1 (stereo not drawn) [Compound 64, 1-cyclopropyl-9-fluoro-5-isopropyl-8-(oxetan-3-ylmethoxy)-2-oxo-5H-chromeno[4,3-b]pyridine-3-carboxylic acid] |
| 0.001 to 1 | CC(C)C1Oc2cc(OCC3(C)COC3)c(F)cc2-c2c1cc(C(=O)O)c(=O)n2C1CC1 (stereo not drawn) [Compound 65, 1-cyclopropyl-9-fluoro-5-isopropyl-8-[(3-methyloxetan-3-yl)methoxy]-2-oxo-5H-chromeno[4,3-b]pyridine-3-carboxylic acid] |
| 1 to 20 | COc1cc2c(cc1Cl)-c1c(cc(C(=O)O)c(=O)n1C1CC1)[C@@H](C1(C)COC1)O2 [Compound 66, (5S)-9-chloro-1-cyclopropyl-8-methoxy-5-(3-methyloxetan-3-yl)-2-oxo-5H-chromeno[4,3-b]pyridine-3-carboxylic acid] |
| 0.001 to 1 | COc1cc2c(cc1Cl)-c1c(cc(C(=O)O)c(=O)n1C1CC1)[C@H](C1(C)COC1)O2 [Compound 67, (5R)-9-chloro-1-cyclopropyl-8-methoxy-5-(3-methyloxetan-3-yl)-2-oxo-5H-chromeno[4,3-b]pyridine-3-carboxylic acid] |
| 0.001 to 1 | COCCCOc1cc2c(cc1Br)-c1c(cc(C(=O)O)c(=O)n1C1CC1)C(C(C)C)O2 (stereo not drawn) [Compound 71, 9-bromo-1-cyclopropyl-5-isopropyl-8-(3-methoxypropoxy) -2-oxo-5H-chromeno[4,3-b]pyridine-3-carboxylic acid] |
| > 100 | COc1cc2c(cc1OC)-c1c(cc(C(=O)O)c(=O)n1C1CC1)C(CSC)O2 (stereo not drawn) [Compound 74, 1-cyclopropyl-8,9-dimethoxy-5-(methylsulfanylmethyl)-2-oxo-5H-chromeno[4,3-b]pyridine-3-carboxylic acid] |
